Laboratory results taken from ChEMBL document CHEMBL4130584, “Sesqui- and Diterpenoids from the Radix of Curcuma aromatica” (2017).

Legend:
Assay type in all cases: functional
PC-12 [1] = assay: Antioxidant activity against H2O2-induced cell damage in rat PC12 cells assessed as cell viability at 10 uM after 24 hrs by MTT assay (reference value: 64.34 +/- 1.02 %); settings: PC-12, 24 h, read-out: Activity
PC-12 [2] = assay: Antioxidant activity against H2O2-induced cell damage in rat PC12 cells assessed as cell viability at 5 uM after 24 hrs by MTT assay (reference value: 64.34 +/- 1.02 %); settings: PC-12, 24 h, read-out: Activity
PC-12 [3] = assay: Antioxidant activity against H2O2-induced cell damage in rat PC12 cells assessed as cell viability at 1 uM after 24 hrs by MTT assay (reference value: 64.34 +/- 1.02 %); settings: for viability at 1 µM: PC-12, 24 h, read-out: Activity

Compound | viability at 10 µM (PC-12 [1]) | viability at 5 µM (PC-12 [2]) | viability at 1 µM (PC-12 [3]) | Activity (PC-12 [3])
Cc1cc(=O)c(C(C)C)cc2c1CC[C@]2(C)O | 75.2% | 76.7% | 77.7% | –
CC(C)=C1C[C@H]2[C@@H](CC[C@]2(C)O)[C@](C)(O)CC1=O [ZEDOARONDIOL] | 72.6% | 70.3% | 81.9% | –
CC1=C2C[C@H]3[C@H](CC[C@]3(C)O)[C@@](C)(O)C[C@]2(O)OC1=O [ZEDOAROLIDE B] | 80.7% | 77% | 76.1% | –
C=C1CC[C@H]2C(C)(C)[C@@H](O)CC[C@]2(C)[C@H]1C/C=C1\CCOC1=O | 67.4% | 67.1% | 66.9% | –
CC1=C2C[C@@H]3[C@H](CC[C@@]3(C)O)[C@](C)(O)C[C@H]2OC1=O | 76.4% | 72% | 67.5% | –
Cc1cc2oc(=O)c(C)c-2cc2c1CC[C@H]2C | 72.5% | 70.6% | 68.1% | –
VITAMIN E | – | – | – | 80.9%
CC1=C2CC[C@](C)(O)[C@H]2CC2=C(C)C(=O)O[C@@]2(O)C1 | 74.3% | 76.8% | 82.7% | –
CC1=C2CC[C@](C)(O)[C@H]2CC2=C(C)C(=O)OC2=C1 | 88.7% | 84% | 82.9% | –
CC(=O)CCc1c(C)cc(O)c2c1C(=O)OC2(C)C | 70.2% | 68.7% | 65.4% | –
CCO[C@]12C/C(C)=C/CC[C@@H](C)C(=O)CC1=C(C)C(=O)O2 | 85.2% | 80.9% | 77.7% | –
C[C@]12CCC[C@](C)(C(=O)O)[C@@H]1CC[C@@]13CC[C@@H]([C@H](O)[C@H]21)[C@]1(C)O[C@H]31 | 72.3% | 70.8% | 68.2% | –
CC1=C2C[C@H]3[C@H](CC[C@]3(C)O)[C@@](C)(O)C[C@@H]2OC1=O [ZEDOALACTONE C] | 81% | 77.3% | 73.1% | –
C=C1CC[C@H]2C(C)(C)CCC[C@]2(C)[C@H]1CCC1=CC(=O)OC1 | 72.1% | 70.2% | 67.1% | –
CC1=C2CC(=O)[C@@H](C)CC/C=C(\C)C[C@@]2(O)OC1=O | 78.4% | 76.1% | 74.5% | –
CC1=C2C[C@@]34O[C@]2(OC1=O)[C@H](O)[C@](C)(O)[C@@H]3CC[C@H]4C | 79.8% | 77.7% | 73.7% | –
C=C[C@]1(C)C[C@@H]2OC(=O)C(C)=C2C[C@H]1C(=C)C [ISOGERMAFURENOLIDE] | 67.2% | 63.7% | 62.5% | –
CC(C)C1=CC[C@@](C)(O)[C@@H]2CC[C@@](C)(O)[C@@H]2C1 | 77.7% | 77.9% | 69.5% | –
CC1=C2C[C@]34O[C@](C)(C[C@H]2OC1=O)[C@H]3CC[C@@H]4C | 79.3% | 71.6% | 67.4% | –
CC1=C2CC(=O)[C@@H](C)CC/C=C(\C)C[C@H]2OC1=O | 80.2% | 77.4% | 65.4% | –
CC1=CC(=O)[C@]23C[C@]24[C@@]1(O)CC[C@]4(C)OC3(C)C | 77.2% | 74.8% | 72.7% | –
CC1=CC(=O)O[C@@]2(CC(=O)C(C)C)[C@@H](C)CC[C@@H]12 | 89% | 83.5% | 73.4% | –
CC1=CC(=O)C(=C(C)C)C[C@@]2(O)[C@H](C)CC[C@@H]12 | 76.2% | 68.8% | 69.5% | –
CC(C)=C1C[C@]2(O)[C@@H](CC[C@@H]2C)[C@@](C)(O)CC1=O | 65.2% | 64% | 66.3% | –
CC1=CC(=O)C(=C(C)C)C[C@H]2[C@H]1CC[C@]2(C)O [PROCURCUMENOL] | 69.6% | 70% | 66.4% | –
CC1(C)CCC[C@]2(C)[C@@H]1CC[C@](O)(CO)[C@H]2C/C=C1\CCOC1=O | 74.1% | 72.2% | 67.6% | –
CC1=C2C[C@@H]3[C@](C)(CCC[C@@]3(C)O)C[C@]2(O)OC1=O | 90.1% | 80.9% | 81.2% | –
C=C(C)C(=O)C[C@@]12OC(=O)C=C(C)[C@@H]1CC[C@@H]2C | 75.9% | 72.4% | 69.3% | –
